For experiment [1], the target named is T1, mGAT1 (Mus musculus, UniProt P31648).
T1 construct: expressed in transfected cells; host or cells: HEK293
Kind of experiment: MS Binding Assay with NO711 as native MS marker. To be noted: in presence of 100 μM compound; read-out: remaining specific NO711 binding (mGAT1). As to the method:
(§1) For compounds with pIC50 ([^3H]GABA uptake assay) or pK i (MS Binding Assays) values close to or above 5.0, these experiments were repeated twice and SEM have been calculated.
MS Binding Assays: The MS Binding Assays were performed with mGAT1 membrane preparations obtained from a stably mGAT1 expressing HEK293 cell line and NO711 as unlabeled marker in competitive binding experiments as previously described in detail.34 In short, test compounds were investigated at 7 concentrations in presence of 10 nM NO 711 in competition experiments. Non specific binding was defined as binding remaining in the presence of 100 mM GABA. Incubation was terminated by transfer of 200 μL per well onto a 96‐well filter plate (Acroprep, glass fibre, 1.0 μm, 350 μL, Pall, Dreieich, Germany) with a 12 channel pipette. After rapid vacuum‐filtration the filters were washed with ice cold 0.9 % NaCl (5×150 μL) and dried at 50 °C for 60 min. Afterwards, the filters were eluted with 100 μL methanol containing [^2H10]NO711 (1.4 nM) as internal standard per well into a deep‐well plate by application of vacuum. This step was repeated twice resulting in a total elution volume of 300 μL. Finally, a volume of 130 μL ammonium formate buffer (10 mM, pH 7.0) was added per well and the generated samples analyzed by LC‐ESI‐MS/MS using a API 3200 as described in detail previously.40

In experiment [2] the target is T1, mGAT1. The experiment in a line: [^3H]GABA uptake assay, HEK293 cells expressing mGAT1. The experiment is classed as cell-based. To be noted: for remaining activity at 100 µM: HEK293, in presence of 100 μM compound. As to the method: as §1
(§2) [^3H]GABA uptake assays: The [^3H]GABA uptake assays were performed according to Kragler et al.33 Cells were grown in 150 cm^2 plates to a confluence of 70–90 % up to passage 25. After detachment the cells were centrifuged 5 min at 500×g, washed for three times in phosphate buffered saline and, finally, resuspended in Krebs buffer (2.5 mM CaCl2, 1.2 mM MgSO4, 1.2 mM KH2PO4, 4.7 mM KCl, 11 mM glucose, 25 mM Tris, 119 mM NaCl, pH 7.2). The uptake assays were performed with aliquots of the resulting cell suspension (about 100000–200000 cells per well) in a total volume of 250 μl in 96 well 2.2 mL deep well plates. The cells were equilibrated for 25 min in Krebs buffer in the presence of the test compound at 37 °C in a gently shaking water bath. […] After addition of 25 μl of a solution containing [^3H]GABA (2.22 TBq/mmol, ARC, St Louis, MO, USA) and unlabeled GABA in Krebs (final concentration 8 nM [^3H]GABA and 32 nM unlabeled GABA for mGAT1, mGAT3, mGAT4 and 20 nM [^3H]GABA and 20 nM unlabeled GABA for mGAT2) the cells were incubated for further 4 min (mGAT1, mGAT3, mGAT4) or 10 minutes (mGAT2), respectively. The incubation was stopped by filtration through Sartorius MGC micro glass fiber filters pre‐soaked for 1 h in 0.9 % NaCl by means of a Brandell MWXR‐96TI cell harvester (Brandell, Gaithersburg, MD, USA) under reduced pressure. The filters were rinsed two times with cold 0.9 % NaCl and subsequently transferred to 96 well sample plates (Perkin Elmer LAS, Boston, MA, USA). After addition of 200 μl Rotiszint Eco Plus (Roth, Karlsruhe, Germany) per well the radioactivity was determined in a microbeta liquid scintillation counter (Perkin Elmer LAS, Boston, MA, USA). Non‐specific uptake was determined in presence of 10 mM GABA for mGAT1, mGAT3 and mGAT4 or 100 mM GABA for mGAT2, respectively. The results are expressed as means±S.E.M. of at least three separate experiments, each carried out in triplicate.

The next experiment addresses T2, mGAT2 (Mus musculus, UniProt P31651).
T2 construct: expressed in transfected cells; host or cells: HEK293
T2 sequence (P31651 1-614): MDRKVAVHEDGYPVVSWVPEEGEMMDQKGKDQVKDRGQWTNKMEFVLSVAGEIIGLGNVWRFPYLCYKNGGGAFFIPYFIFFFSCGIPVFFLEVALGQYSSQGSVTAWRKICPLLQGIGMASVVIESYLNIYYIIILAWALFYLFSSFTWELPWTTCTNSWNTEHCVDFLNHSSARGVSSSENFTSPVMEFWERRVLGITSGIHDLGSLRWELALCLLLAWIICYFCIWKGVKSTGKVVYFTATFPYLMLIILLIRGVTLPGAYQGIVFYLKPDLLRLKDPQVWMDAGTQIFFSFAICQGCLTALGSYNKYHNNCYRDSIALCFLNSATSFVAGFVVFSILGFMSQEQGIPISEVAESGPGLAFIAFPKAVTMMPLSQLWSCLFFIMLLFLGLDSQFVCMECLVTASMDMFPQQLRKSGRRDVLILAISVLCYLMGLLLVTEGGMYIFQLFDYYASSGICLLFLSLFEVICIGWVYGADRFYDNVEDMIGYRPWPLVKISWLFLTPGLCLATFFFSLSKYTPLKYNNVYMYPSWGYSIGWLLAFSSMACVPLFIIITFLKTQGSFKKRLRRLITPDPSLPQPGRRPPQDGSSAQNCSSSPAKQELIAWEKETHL
Kind of experiment: [^3H]GABA uptake assay, HEK293 cells expressing mGAT2. The experiment is classed as cell-based. To be noted: HEK293; in presence of 100 μM compound. As to the method:
as §1, §2

The target in the next experiment is T3, mGAT3 (Mus musculus, UniProt P31649).
T3 construct: expressed in transfected cells; host or cells: HEK293
T3 sequence (P31649 1-602): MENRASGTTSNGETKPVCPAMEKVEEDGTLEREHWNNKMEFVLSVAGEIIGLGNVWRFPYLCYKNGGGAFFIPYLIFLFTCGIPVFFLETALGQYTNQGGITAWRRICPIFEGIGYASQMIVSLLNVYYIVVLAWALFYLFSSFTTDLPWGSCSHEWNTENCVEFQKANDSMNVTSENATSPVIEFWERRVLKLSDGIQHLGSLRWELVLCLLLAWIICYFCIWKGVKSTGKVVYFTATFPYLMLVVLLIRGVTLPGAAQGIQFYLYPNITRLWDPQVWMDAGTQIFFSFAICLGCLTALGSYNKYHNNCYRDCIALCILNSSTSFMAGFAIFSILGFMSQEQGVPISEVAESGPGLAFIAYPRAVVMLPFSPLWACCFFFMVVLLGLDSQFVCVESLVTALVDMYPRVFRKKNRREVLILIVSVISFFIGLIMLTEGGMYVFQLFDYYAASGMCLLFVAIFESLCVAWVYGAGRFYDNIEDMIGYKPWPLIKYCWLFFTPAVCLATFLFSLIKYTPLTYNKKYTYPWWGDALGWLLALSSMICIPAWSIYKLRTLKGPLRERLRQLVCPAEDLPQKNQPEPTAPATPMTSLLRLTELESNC
Kind of experiment: [^3H]GABA uptake assay, HEK293 cells expressing mGAT3. The experiment is classed as cell-based. To be noted: for remaining activity at 100 µM: HEK293, in presence of 100 μM compound; for pIC50: [^3H]GABA uptake, pIC50±SEM. As for the experimental part:
as §1, §2

The target in a further experiment is T4, mGAT4 (Mus musculus, UniProt P31650).
T4 construct: expressed in transfected cells; host or cells: HEK293
T4 sequence (P31650 1-627): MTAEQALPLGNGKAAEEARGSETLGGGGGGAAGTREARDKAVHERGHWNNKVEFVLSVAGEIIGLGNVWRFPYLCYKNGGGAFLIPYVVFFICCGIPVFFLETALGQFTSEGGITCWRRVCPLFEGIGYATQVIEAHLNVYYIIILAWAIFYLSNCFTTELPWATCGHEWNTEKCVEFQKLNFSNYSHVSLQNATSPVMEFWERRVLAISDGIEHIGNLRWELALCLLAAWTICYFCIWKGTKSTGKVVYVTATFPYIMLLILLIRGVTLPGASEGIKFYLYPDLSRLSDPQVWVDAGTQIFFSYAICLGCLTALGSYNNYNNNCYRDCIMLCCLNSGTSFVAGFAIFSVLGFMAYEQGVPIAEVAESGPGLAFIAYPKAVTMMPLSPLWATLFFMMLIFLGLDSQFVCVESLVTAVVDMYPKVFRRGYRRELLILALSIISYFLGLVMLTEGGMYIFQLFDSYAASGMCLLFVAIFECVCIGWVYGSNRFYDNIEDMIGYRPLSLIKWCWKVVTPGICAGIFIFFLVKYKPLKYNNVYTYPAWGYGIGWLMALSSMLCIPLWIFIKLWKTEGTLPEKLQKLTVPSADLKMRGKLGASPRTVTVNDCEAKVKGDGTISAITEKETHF
The experiment in a line: [^3H]GABA uptake assay, HEK293 cells expressing mGAT4. Type of experiment: cell-based. To be noted: for remaining activity at 100 µM: HEK293; for pIC50: [^3H]GABA uptake, pIC50±SEM. As for the experimental part:
as §1, §2

The structures appear in SMILES notation. pIC50: −log10 of the molar value.

In the case of `COc1ccc(C(OCCN2CCCC(C(=O)O)C2)(c2ccc(CNCCC(=O)O)cc2)c2ccc(OC)cc2)cc1` (racemic) [5 o, rac‐ 1‐{2‐[(4‐{[(2‐Carboxyethyl)amino]methyl}phenyl)bis(4‐methoxy‐phenyl)methoxy]ethyl}piperidine‐3‐carboxylic acid], the remaining activity at 100 µM on mGAT1 [1] was 82.3%; on mGAT1 [2] it was 94.4%; on mGAT2 it was 69.5%; at mGAT3, 89.1%; at mGAT4 (in presence of 100 μM compound), 56.3%.
Turning to `CCOC(=O)C1CCCN(CCOC(c2ccc(COC)cc2)(c2ccc(COC)cc2)c2ccc(COC)cc2)C1` (racemic) [12 i, rac‐ Ethyl 1‐(2‐{tris[4‐(methoxymethyl)phenyl]methoxy}ethyl)piperidine‐3‐carboxylate], the remaining activity at 100 µM was determined as 87.5% at mGAT1 [1], 70.3% on mGAT1 [2], 65% at mGAT2 and 51.4% on mGAT4 (in presence of 100 μM compound). At mGAT3, the negative logarithm of the IC50 (pIC50) – broadly, the negative decadic logarithm of the IC50, by convention in mol/L – is 4.02.
`CCOC(=O)C1CCCN(CCOC(c2ccc(C#N)cc2)(c2ccc(OC)cc2)c2ccc(OC)cc2)C1` (racemic) [12 g, rac‐ Ethyl 1‐{2‐[(4‐cyanophenyl)bis(4‐methoxyphenyl)methoxy]ethyl}‐piperidine‐3‐carboxylate]: the remaining activity at 100 µM at mGAT1 [1] was 97.6%; on mGAT1 [2], 76.6%; at mGAT2, 80.7%; at mGAT3, 63.6%; on mGAT4 (in presence of 100 μM compound) it was 71.9%.
For `COc1ccc(C(OCCN2CCCC(C(=O)O)C2)(c2ccc(OC)cc2)c2ccc(C(=O)O)cc2)cc1` (racemic) [5 e, rac ‐1‐{2‐[(4‐Carboxyphenyl)bis(4‐methoxyphenyl)methoxy]ethyl}piper‐idine‐3‐carboxylic acid], the remaining activity at 100 µM on mGAT1 [1] was determined as 71.4%; at mGAT1 [2] it was 96.5%; at mGAT2 it was 85.2%. Besides, the pIC50 is 4.24 against mGAT3 and 4.86 against mGAT4.
For the compound `COc1ccc(C(OCCN2CCCC(C(=O)O)C2)(c2ccc(CN3CCCC3=O)cc2)c2ccc(OC)cc2)cc1` (racemic) [5 r, rac‐ 1‐[2‐(Bis{4‐methoxyphenyl}{4‐[(2‐oxopyrrolidin‐1‐yl)methyl]phenyl}‐methoxy)ethyl]piperidine‐3‐carboxylic acid], the remaining activity at 100 µM amounted to 97% on mGAT1 [1], 76% on mGAT1 [2], 79.7% on mGAT2 and 64.2% at mGAT3. On mGAT4, the pIC50 was 4.19.
In the case of `COc1ccc(C(OCCN2CCC[C@H](C(=O)O)C2)(c2ccc(C=O)cc2)c2ccc(OC)cc2)cc1` [(S)‐5 a, (S)‐1‐{2‐[(4‐Formylphenyl)bis(4‐methoxyphenyl)methoxy]ethyl}piper‐idine‐3‐carboxylic acid], the remaining activity at 100 µM at mGAT1 [1] came to 77.4%; at mGAT2, 72.6%. Moreover, the pIC50 was 4.14 at mGAT1 [2] ([^3H]GABA uptake, pIC50±SEM); 5.16 on mGAT3; 5.89 against mGAT4.
Consider `COc1ccc(C(OCCN2CCCC(C(=O)O)C2)(c2ccc(CNCCCC(=O)O)cc2)c2ccc(OC)cc2)cc1` (racemic) [5 s, rac ‐1‐{2‐[(4‐{[(3‐Carboxypropyl)amino]methyl}phenyl)bis(4‐methoxy‐phenyl)methoxy]ethyl}piperidine‐3‐carboxylic acid], for which the remaining activity at 100 µM amounted to 86.5% on mGAT1 [1], 48.5% at mGAT1 [2] and 51.5% at mGAT2. In addition, the pIC50 against mGAT3 was 4.33; on mGAT4, 4.13.
`COc1ccc(C(OCCN2CCCC(C(=O)O)C2)(c2ccc(CNc3ccc(C(=O)O)cc3)cc2)c2ccc(OC)cc2)cc1` (racemic) [5 t, rac‐ 1‐{2‐[(4‐{[(4‐Carboxyphenyl)amino]methyl}phenyl)bis(4‐methoxy‐phenyl)methoxy]ethyl}piperidine‐3‐carboxylic acid]: the remaining activity at 100 µM is 54.1% on mGAT1 [1], 99.5% on mGAT1 [2], 96% on mGAT3 and 50% on mGAT4 (in presence of 100 μM compound). Also, the “remaining [^3H]GABA uptake mGAT4” value on mGAT4 (in presence of 100 μM compound) is given as 50,0%.

The values are drawn from paper PMC7317212 (Chemmedchem, 2020).
